Consider two compounds from ChEMBL document CHEMBL1240316, “An oxidation-sensing mechanism is used by the global regulator MgrA in Staphylococcus aureus” (2006).

Assay [1] relates to Staphylococcus aureus. Nature of the assay: Antimicrobial activity against Staphylococcus aureus assessed as visible growth at 0.35 ug/ml after 24 hrs. It counts as functional, organism-based.
The test system of assay [2] is Staphylococcus aureus. The assay can be described thus: Antimicrobial activity against Staphylococcus aureus assessed as visible growth at 0.45 ug/ml after 24 hrs in presence of 20 uM paraquat. It counts as functional, organism-based.
Assay [3] deals with Staphylococcus aureus. Nature of the assay: Antimicrobial activity against Staphylococcus aureus assessed as visible growth at 0.65 ug/ml after 24 hrs. It counts as functional, organism-based.
Assay [4] relates to Staphylococcus aureus. Nature of the assay: Antimicrobial activity against Staphylococcus aureus assessed as visible growth at 0.65 ug/ml after 24 hrs in presence of 20 uM paraquat. The format is functional, organism-based.
The test system of assay [5] is Staphylococcus aureus. Nature of the assay: Antimicrobial activity against Staphylococcus aureus expressing mgrA C12S mutant gene assessed as visible growth at 0.55 ug/ml after 24 hrs. It counts as functional, organism-based.
In assay [6] the test system is Staphylococcus aureus. The assay can be described thus: Antimicrobial activity against Staphylococcus aureus expressing mgrA C12S mutant gene assessed as visible growth at 0.55 ug/ml after 24 hrs in presence of 20 uM paraquat. The format is functional, organism-based.
Assay [7] concerns Staphylococcus aureus. The assay can be described thus: Antimicrobial activity against Staphylococcus aureus expressing mgrA C12S mutant gene assessed as visible growth at 0.65 ug/ml after 24 hrs in presence of 20 uM paraquat. The format is functional, organism-based.
For assay [8], the system named is Staphylococcus aureus. Nature of the assay: Antimicrobial activity against Staphylococcus aureus expressing mgrA C12S mutant gene assessed as visible growth at 0.20 ug/ml after 24 hrs. It counts as functional, organism-based.
The test system of assay [9] is Staphylococcus aureus. Nature of the assay: Antimicrobial activity against Staphylococcus aureus expressing mgrA C12S mutant gene harboring plasmid Pyj335 assessed as visible growth at 0.20 ug/ml after 24 hrs in presence of 25 uM paraquat. It counts as functional, organism-based.
Assay [10] relates to Staphylococcus aureus. Nature of the assay: Antimicrobial activity against Staphylococcus aureus expressing mgrA C12S mutant gene harboring Pyj335-His-mgrA assessed as visible growth at 0.20 ug/ml after 24 hrs in presence of 25 uM paraquat. It counts as functional, organism-based.
Assay [11] relates to Staphylococcus aureus. Nature of the assay: Antimicrobial activity against Staphylococcus aureus expressing mgrA C12S mutant gene harboring plasmid Pyj335 assessed as visible growth at 0.35 ug/ml after 24 hrs. It counts as functional, organism-based.
The test system of assay [12] is Staphylococcus aureus. The assay can be described thus: Antimicrobial activity against Staphylococcus aureus expressing mgrA C12S mutant gene harboring plasmid Pyj335 assessed as visible growth at 0.45 ug/ml after 24 hrs. It counts as functional, organism-based.
Assay [13] has as its system Staphylococcus aureus. The assay can be described thus: Antimicrobial activity against Staphylococcus aureus expressing mgrA C12S mutant gene harboring plasmid Pyj335 assessed as visible growth at 0.45 ug/ml after 24 hrs in presence of 20 uM paraquat. It counts as functional, organism-based.
The subject of assay [14] is Staphylococcus aureus. Nature of the assay: Antimicrobial activity against Staphylococcus aureus expressing mgrA C12S mutant gene harboring plasmid Pyj335 assessed as visible growth at 0.65 ug/ml after 24 hrs in presence of 20 uM paraquat. It counts as functional, organism-based.
Assay [15] deals with Staphylococcus aureus. The assay can be described thus: Antimicrobial activity against Staphylococcus aureus expressing mgrA C12S mutant gene harboring Pyj335-His-mgrA assessed as visible growth at 0.45 ug/ml after 24 hrs. The format is functional, organism-based.
For assay [16], the system named is Staphylococcus aureus. Nature of the assay: Antimicrobial activity against Staphylococcus aureus expressing mgrA C12S mutant gene harboring Pyj335-His-mgrA assessed as visible growth at 0.55 ug/ml after 24 hrs. The format is functional, organism-based.
The test system of assay [17] is Staphylococcus aureus. The assay can be described thus: Antimicrobial activity against Staphylococcus aureus expressing mgrA C12S mutant gene harboring Pyj335-His-mgrA assessed as visible growth at 0.75 ug/ml after 24 hrs in presence of 20 uM paraquat. It counts as functional, organism-based.
For assay [18], the system named is Staphylococcus aureus. The assay can be described thus: Antimicrobial activity against Staphylococcus aureus expressing mgrA C12S mutant gene harboring Pyj335-His-mgrA assessed as visible growth at 2.6 ug/ml after 24 hrs in presence of 20 uM paraquat. It counts as functional, organism-based.
The subject of assay [19] is Staphylococcus aureus. Nature of the assay: Antimicrobial activity against Staphylococcus aureus assessed as visible growth at 1.4 ug/ml after 24 hrs. The format is functional, organism-based.
The subject of assay [20] is Staphylococcus aureus. Nature of the assay: Antimicrobial activity against Staphylococcus aureus assessed as visible growth at 2.2 ug/ml after 24 hrs. The format is functional, organism-based.
Assay [21] concerns Staphylococcus aureus. Nature of the assay: Antimicrobial activity against Staphylococcus aureus expressing mgrAC12S mutant gene harboring plasmid Pyj335-His-mgrA C12S assessed as highest concentration at which growth was visible after 24 hrs. The format is functional.
In assay [22] the test system is Staphylococcus aureus. Nature of the assay: Antimicrobial activity against Staphylococcus aureus expressing mgrA C12S mutant gene harboring Pyj335-His-mgrA C12S assessed as visible growth at 1.1 ug/ml after 24 hrs in presence of 100 uM hydrogen peroxide. The format is functional, organism-based.
Assay [23] relates to Staphylococcus aureus. Nature of the assay: Antimicrobial activity against Staphylococcus aureus expressing mgrA C12S mutant gene harboring plasmid Pyj335-His-mgrA assessed as visible growth at 1.1 ug/ml after 24 hrs. The format is functional, organism-based.
Assay [24] deals with Staphylococcus aureus. Nature of the assay: Antimicrobial activity against Staphylococcus aureus assessed as visible growth at 1.1 ug/ml after 24 hrs. The format is functional, organism-based.
Assay [25] concerns Staphylococcus aureus. Nature of the assay: Antimicrobial activity against Staphylococcus aureus expressing mgrA C12S mutant gene harboring plasmid Pyj335 assessed as visible growth at 1.1 ug/ml after 24 hrs in presence of 25 uM paraquat. The format is functional, organism-based.
The subject of assay [26] is Staphylococcus aureus. The assay can be described thus: Antimicrobial activity against Staphylococcus aureus expressing mgrA C12S mutant gene harboring Pyj335-His-mgrA C12S assessed as visible growth at 1.1 ug/ml after 24 hrs in presence of 25 uM of paraquat. The format is functional, organism-based.
For assay [27], the system named is Staphylococcus aureus. Nature of the assay: Antimicrobial activity against Staphylococcus aureus expressing mgrA C12S mutant gene assessed as visible growth at 1.8 ug/ml after 24 hrs. It counts as functional, organism-based.
Assay [28] has as its system Staphylococcus aureus. Nature of the assay: Antimicrobial activity against Staphylococcus aureus expressing mgrA C12S mutant gene assessed as visible growth at 2.2 ug/ml after 24 hrs in presence of 20 uM paraquat. It counts as functional, organism-based.
Assay [29] concerns Staphylococcus aureus. Nature of the assay: Antimicrobial activity against Staphylococcus aureus expressing mgrA C12S mutant gene harboring plasmid Pyj335 assessed as visible growth at 0.6 ug/ml after 24 hrs in presence of 20 uM paraquat. The format is functional, organism-based.
Assay [30] relates to Staphylococcus aureus. The assay can be described thus: Antimicrobial activity against Staphylococcus aureus expressing mgrA C12S mutant gene harboring plasmid Pyj335 assessed as visible growth at 1.4 ug/ml after 24 hrs. It counts as functional, organism-based.
Assay [31] relates to Staphylococcus aureus. Nature of the assay: Antimicrobial activity against Staphylococcus aureus expressing mgrA C12S mutant gene harboring plasmid Pyj335 assessed as visible growth at 2.2 ug/ml after 24 hrs. The format is functional, organism-based.
Assay [32] relates to Staphylococcus aureus. Nature of the assay: Antimicrobial activity against Staphylococcus aureus expressing mgrA C12S mutant gene harboring plasmid Pyj335 assessed as visible growth at 2.6 ug/ml after 24 hrs. It counts as functional, organism-based.
Assay [33] deals with Staphylococcus aureus. Nature of the assay: Antimicrobial activity against Staphylococcus aureus expressing mgrA C12S mutant gene harboring Pyj335-His-mgrA assessed as visible growth at 0.6 ug/ml after 24 hrs. It counts as functional, organism-based.
Assay [34] relates to Staphylococcus aureus. Nature of the assay: Antimicrobial activity against Staphylococcus aureus expressing mgrA C12S mutant gene harboring Pyj335-His-mgrA assessed as visible growth at 0.6 ug/ml after 24 hrs in presence of 20 uM paraquat. The format is functional, organism-based.
For assay [35], the system named is Staphylococcus aureus. Nature of the assay: Antimicrobial activity against Staphylococcus aureus expressing mgrA C12S mutant gene harboring Pyj335-His-mgrA assessed as visible growth at 1 ug/ml after 24 hrs. The format is functional, organism-based.
Assay [36] has as its system Staphylococcus aureus. Nature of the assay: Antimicrobial activity against Staphylococcus aureus expressing mgrA C12S mutant gene harboring Pyj335-His-mgrA assessed as visible growth at 1 ug/ml after 24 hrs in presence of 20 uM paraquat. It counts as functional, organism-based.
Assay [37] relates to Staphylococcus aureus. Nature of the assay: Antimicrobial activity against Staphylococcus aureus expressing mgrA C12S mutant gene harboring Pyj335-His-mgrA assessed as visible growth at 1.8 ug/ml after 24 hrs. It counts as functional, organism-based.
The subject of assay [38] is Staphylococcus aureus. The assay can be described thus: Antimicrobial activity against Staphylococcus aureus expressing mgrA C12S mutant gene harboring plasmid Pyj335-His-mgrA assessed as visible growth at 1.8 ug/ml after 24 hrs in presence of 20 uM paraquat. The format is functional, organism-based.

SMILES strings stand for the structures. The source made the active and inactive calls. The rule behind the calls is not given here.

Turning to `O=C(O)c1cn(C2CC2)c2cc(N3CCNCC3)c(F)cc2c1=O` [CIPROFLOXACIN], the result with Staphylococcus aureus [1], in the assay on Staphylococcus aureus [3], in the assay with Staphylococcus aureus [4], in the assay with Staphylococcus aureus [10], in the assay with Staphylococcus aureus [15] and in the assay on Staphylococcus aureus [16] was Active. In the assay on Staphylococcus aureus [17], the result was Active. The result with Staphylococcus aureus [2], in the assay on Staphylococcus aureus [5], with Staphylococcus aureus [6], in the assay with Staphylococcus aureus [7], in the assay with Staphylococcus aureus [8] and in the assay on Staphylococcus aureus [9] was inactive. Also, the result with Staphylococcus aureus [11], with Staphylococcus aureus [12], in the assay on Staphylococcus aureus [13] and in the assay with Staphylococcus aureus [14] was inactive.
For `CN[C@H](CC(C)C)C(=O)N[C@H]1C(=O)N[C@@H](CC(N)=O)C(=O)N[C@H]2C(=O)N[C@H]3C(=O)N[C@H](C(=O)N[C@H](C(=O)O)c4cc(O)cc(O)c4-c4cc3ccc4O)[C@H](O)c3ccc(c(Cl)c3)Oc3cc2cc(c3O[C@@H]2O[C@H](CO)[C@@H](O)[C@H](O)[C@H]2O[C@H]2C[C@](C)(N)[C@H](O)[C@H](C)O2)Oc2ccc(cc2Cl)[C@H]1O` [VANCOMYCIN], the result in the assay with Staphylococcus aureus [18], in the assay on Staphylococcus aureus [19], with Staphylococcus aureus [20], in the assay on Staphylococcus aureus [22], in the assay with Staphylococcus aureus [23] and with Staphylococcus aureus [24] was Active. Moreover, the result with Staphylococcus aureus [26], with Staphylococcus aureus [32] and in the assay with Staphylococcus aureus [37] was Active. Besides, in the assay with Staphylococcus aureus [21], the Activity is 1 µg/mL. The result in the assay on Staphylococcus aureus [25], in the assay with Staphylococcus aureus [27], with Staphylococcus aureus [28], with Staphylococcus aureus [29], with Staphylococcus aureus [30] and with Staphylococcus aureus [31] was inactive. Further, the result in the assay on Staphylococcus aureus [33], with Staphylococcus aureus [34], in the assay on Staphylococcus aureus [35], with Staphylococcus aureus [36] and with Staphylococcus aureus [38] was inactive.
